Data on 2 compounds can be found in patent US20070270421A1, “Novel pyridine Derivative and Pyrimidine Derivative (1)” (priority 2004, published 2007).

In assay [1] the test system is Human gastric cancer cells (MKN-45) tumor. Description: Inhibitory activity against the tumor growth of human gastric cancer cells (MKN-45) transplanted in mice. Type of assay: in vivo, BALB/c (nu/nu) mice. The settings on record: oral, twice every day, fifth day, tumor volume relative to control group. As to the method:
Human gastric cancer cells (MNK-45) were suspended in HBSS (purchased from GIBCO BRL). The cell suspension (5×10^7 cells/ml) was transplanted under the right flank skin of seven-week-old female BALB/c (nu/nu) mice at a volume of 0.1 ml. When tumor volume of the site transplanted with MNK-45 cells grew to 100-200 mm^3, mice were grouped so that the groups might be equalized in average tumor volume. The test substance was suspended in 0.5% methylcellulose, a mixed solution of hydrochloric acid and glucose (0.1N hydrochloric acid:5% glucose=1:9) or a mixed solution of dimethyl sulfoxide-Tween-glucose (dimethyl sulfoxide:Tween 80:5% glucose (containing equimolar hydrochloric acid to the test substance)=7:13:80), were administered orally to the mice twice every day. The tumor volumes were determined at the fifth day after the initiation of the administration of the test substances. The major axis and the minor axis of tumor were measured by a caliper to calculate 1/2×(major axis×minor axis×minor axis) for the tumor volume. The experiment was conducted using 10 mice in the control group (solvent-administered group) and 5 mice in test substance-administered group. The ratio in tumor volume of the group for administrating the test substance relative to that of the control group was defined as a tumor proliferation rate (%).

Assay [2] concerns Human umbilical vein endothelial cells (HUVECs). The assay is described as follows: Inhibitory activity against the growth of vascular endothelial cells stimulated with hepatocyte growth factor. Type of assay: cell-based. The settings on record: HUVEC, HGF stimulation, third day, Cell Counting Kit-8, read-out: IC50 (concentration necessary to inhibit cell proliferation activity by 50%). As to the method:
(§1) Human umbilical vein endothelial cells (HUVECs) were isolated according to the reported method (Shin Seikagaku Jikken Koza, “Cell culturing techniques”, p 197-202), and then cultured in a 5% CO2 incubator (37° C.) using EGM-2 medium (purchased from Clonetics) until the cells reached confluency.
HUVECs were suspended in a serum-free medium for endothelial cell culture (SFM, purchased from GIBCO RBL) containing 2% FBS. The cell suspension (2×10^4 cells/ml) was put in a cell culturing 96-well plate (purchased from NUNC, Production No. 167008) at 0.1 ml/well, and then cultured in a 5% CO2 incubator (37° C.) overnight. […] After the incubation, using a Plate Reader MTP-500 (Corona Electric), the absorbance of each well was determined at a measurement wavelength of 450 nm and a reference wavelength of 660 nm. While defining the absorbance of a well supplied with HGF and no test substance as 100% cell proliferation activity and the absorbance of the well supplied with no test substance and no HGF as 0% cell proliferation activity, the cell proliferation activity ratio (%) was calculated for each cell. […]
For orientation: Tetrazolium dyes change colour on reduction, which living cells bring about.

For assay [3] the test system is unchanged. Description: Inhibitory activity against sandwich tube formation by vascular endothelial cells stimulated with hepatocyte growth factor. Type of assay: cell-based. The settings on record: HUVEC in collagen gel, 30 ng/ml HGF, fourth day, total tube length, read-out: IC50 (concentration necessary to inhibit the tube formation by 50%). As to the method: as §1
To each well of a 24-well plate was added 0.4 ml of an ice-cold mixture of collagen:5×RPMI1640:reconstitution buffer (all purchased from Nitta Gelatin, Inc.) at 7:2:1, followed by incubating in a 5% CO2 incubator (37° C.) for 40 min to allow the solution to gel. Then, each well was supplied with 1 ml of the cell suspension of HUVEC (1-1.2×10^5 cells were used, though the cell number varied slightly depending on the lot of the HUVEC to be used) diluted with a serum free medium for endothelial cell culture (SFM, purchased from GIBCO RBL) supplemented with 10 ng/ml of EGF, followed by culturing in a 5% CO2 incubator (37° C.) overnight. […] The tube formed in the collagen gel of each well was stained with MTT, and then the tube image was loaded in a computer (Macintosh) to determine the total length of the tube by an image analysis software “Angiogenesis quantification software” (purchased from Kurabo). The ratio of the total length of a tube formed in a well supplied with the test substance relative to a tube formed in a well supplied with no test substance was expressed as a percentage. […]

Consider `O=C(Cc1ccc(F)cc1)NC(=S)Nc1ccc(Oc2cc(NC(=O)N3CCCC3)ncn2)c(F)c1` [Example 3, Pyrrolidine-1-carboxylic acid [6-(2-fluoro-4-{3-[2-(4-fluorophenyl)acetyl]thioureido}phenoxy)pyrimidin-4-yl]amide], for which the “Tumor proliferation rate (%)” value in assay [1] (Dose 30 mg/kg/time) is listed as 69%; in assay [1] (Dose 100 mg/kg/time) it was 37%. The IC50 in assay [2] was 190 nM.

For the compound `O=C(Cc1ccc(F)cc1)NC(=S)Nc1ccc(Oc2ccnc(NC(=O)N3CCCC3)c2)c(F)c1` [Example 13, 4-(2-Fluoro-4-{3-[2-(4-fluorophenyl)acetyl]thioureido}phenoxy)-2-[(pyrrolidin-1-yl)carbonylamino]pyridine], the “Tumor proliferation rate (%)” value in assay [1] (Dose 10 mg/kg/time) turned out to be 68%; in assay [1] (Dose 30 mg/kg/time), 47%; in assay [1] (Dose 100 mg/kg/time) it was 26%. In addition, the IC50 stood at 130 nM in assay [3] and 73 nM in assay [2].
